Patent US20240374552A1, “Compositions and Methods for Preventing or Reducing the Risk of Metabolic Syndrome” (priority 2021, published 2024)

Test system: mice
Assay: Evaluation toxicity, 90-day daily intragastric administration in mice
Type: in vivo
Settings: for Percentage of dead mice (%): purity min 95%

Structure (SMILES): CC(C)(C)c1cc(C=C(C#N)C#N)cc(C(C)(C)C)c1O [tyrphostin AG17, Tyrphostin AG17]
- Percentage of dead mice, second evaluation (5.50 mg/kg to 55.50 mg/kg, lot with minimum purity of 98%): 0%
- Percentage of dead mice (deaths), second evaluation (100.00 mg/kg, lot with minimum purity of 98%): 10%
- Percentage of dead mice (%) (T2: 0.000175 mg/Kg daily 90 days): 0%
- Percentage of dead mice (%) (T4: 0.0175 mg/Kg daily 90 days): 0%
- Percentage of dead mice (%) (T6: 0.18 mg/Kg daily 90 days): 0%
- Percentage of dead mice (%) (T10: 5.50 mg/Kg daily 90 days): 10%
- Percentage of dead mice (%) (T11: 17.50 mg/Kg daily 90 days): 10%
- Percentage of dead mice (%) (T12: 25.00 mg/Kg daily 90 days): 0%
- Percentage of dead mice (%) (T12: 25.00 mg/Kg daily 90 days, listed as tyrphostin): did not show any dead mice
- Percentage of dead mice (%) (T13: 28.00 mg/Kg daily 90 days): 10%
- Percentage of dead mice (%) (T14: 40.00 mg/Kg daily 90 days): 10%
- Percentage of dead mice (%) (T15: 50.00 mg/Kg daily 90 days): 20%
- Percentage of dead mice (%) (T16: 55.50 mg/Kg daily 90 days): 20%
- Percentage of dead mice (%) (T17: 100.00 mg/Kg daily 90 days): 40%
